Values of other authors, collected in EP0271041A2, “Atrial peptide derivatives” (ABBOTT LABORATORIES, priority 1986, dated 1988).
Bridges are numbered along the chain shown (N, C = ends). Where no end group is shown, it is not given here.

Conditions: relative to furosemide

## alpha-human atrial natriuretic polypeptide (SLRRSSCFGGRMDRIGAQSGLGCNSFRY; disulfide 7-23 (inferred); ends not checked; UniProt P01160 124-151, looked up) [alpha-hANP, polypeptide consisting of 28 amino acids isolated from human atrium]
  diuretic action, times as strong as that of furosemide: about 1000 times
